Assay results: patent US20230272399A1, “INHIBITORS OF LINE1 AND USES THEREOF” (T-ONE THERAPEUTICS S.R.L., priority 2020, published 2023)
One block for each compound: values may come before it. *1 amine or outer side, *2 acyl side, *3 side chain or, on linkers, in order; H or OH if unused. Where a SMILES comes first, the peptide text is derived from it. Bridges are numbered along the chain shown (N, C = ends). Roman numbers before positions name the chains, in order. [ ]: non-standard residue; d: D form. Actinocin(9to1) = Cc1c2oc3c(C)ccc(C(=O)[*:1])c3nc-2c(C(=O)[*:2])c(N)c1=O; NMeV = CN[C@H](C(=O)O)C(C)C; Sar = CNCC(=O)O

Experiments:
LINE1 RNAs [1] = assay: LINE1 RNA FISH in naïve CD4+ T-cells treated with 3TC retrotranscriptase inhibitor; format: cell-based, human; details: versus vehicle (DMSO)
Protocol: Briefly, antisense biotinylated riboprobes for LINE1, AluY and HERVK were in vitro transcribed using MAXIscript T7 transcription kit (Invitrogen) and Biotin RNA labeling mix (Roche). 50-100 ng of antisense biotinylated riboprobes per experiment were used. 3% paraformaldehyde (PFA) fixed T-cells were washed with 0.05% Triton-X-100 in PBS, permeabilized with 0.5% Triton-X-100 in PBS and maintained in 20% glycerol/PBS.
To quantify mean fluorescence intensity of RNA signal in 3D reconstructed nuclei, images were analyzed with NIS-Elements Software (by Nikon). In the “General Analysis” a mask on DAPI signals was generated to identify single nuclei, and then a “3D measurement” of RNA signals in every nucleus was performed. To measure the colocalization of RNA and histone mark signals was used ImageJ Software to control the Pearson Correlation through the command “Colocalization Threshold” for every nucleus.

mTORC1 = mTORC1 (Homo sapiens, UniProt P42345+P62942); assay: LINE1 expression in memory CD4+ T-cells from blood of patients treated with mTORC1 inhibitors; details: memory CD4+ T-cells from blood of kidney transplanted patients treated with Everolimus, versus healthy individuals
LINE1 RNAs [2] = assay: Actinomycin D treatment of quiescent naïve CD4+ T-cells, LINE1 expression by qRT-PCR; format: cell-based, human; details: Actinomycin D 5 μg/mL, 16 h
Protocol: Quiescent naïve CD4^+ T-cells were treated for 16 h with Actinomycin D 5 μg/mL (Merck; cat. num. A9415) as reported in^68. TCR signaling pathway inhibition was performed using the following immunosuppressive drugs: Rapamycin (100 nM; Merck; cat. num. R8781) for mTORC1, Ciclosporin A (0,5 μg/mL; Merck; cat. num. C3662) for Calcineurin pathway, Dexamethasone (1 μM; Merck; cat. num. D4902) for NF-κB pathway. Quiescent naïve CD4^+ T-cells were pretreated for 2 hours with the overmentioned drugs, then stimulated with Dynabeads Human T-activator anti-CD3/anti-CD28 beads in Th1 medium, in the presence of the different inhibitors; T-cells were collected 2, 4, 8 h post activation. Otherwise, naïve CD4^+ T-cells activated and cultured in Th1 medium for 72 h were treated for 48 h with the drugs. Treated cells were controlled for their vitality and treatment efficacy was assessed.

Structure (SMILES): Nc1ccn([C@@H]2CS[C@H](CO)O2)c(=O)n1 [3TC]
- staining of LINE1 RNAs (RNA-FISH) (LINE1 RNAs [1]): completely unchanged

- LINE1 RNAs expression (mTORC1): re-express LINE1 RNAs
Structure (SMILES): CO[C@H]1C[C@@H]2CC[C@@H](C)[C@@](O)(O2)C(=O)C(=O)N2CCCC[C@H]2C(=O)O[C@H]([C@H](C)C[C@@H]2CC[C@@H](OCCO)[C@H](OC)C2)CC(=O)[C@H](C)/C=C(\C)[C@@H](O)[C@@H](OC)C(=O)[C@H](C)C[C@H](C)/C=C/C=C/C=C/1C [Everolimus]

Structure (SMILES): Cc1c2oc3c(C)ccc(C(=O)N[C@@H]4C(=O)N[C@H](C(C)C)C(=O)N5CCC[C@H]5C(=O)N(C)CC(=O)N(C)[C@@H](C(C)C)C(=O)O[C@@H]4C)c3nc-2c(C(=O)N[C@@H]2C(=O)N[C@H](C(C)C)C(=O)N3CCC[C@H]3C(=O)N(C)CC(=O)N(C)[C@@H](C(C)C)C(=O)O[C@@H]2C)c(N)c1=O [actinomycin D, Actinomycin D] (I: T[dV]P[Sar][NMeV] / II: T[dV]P[Sar][NMeV]; ester I:1-I:C, II:1-II:C; linker I:N-II:N via Actinocin(9to1))
- LINE1 RNAs levels (LINE1 RNAs [2]): moderately affect
